From patent US20240366577A1, “CONTROLLED LONG-TERM DRUG DELIVERY AND METHODS THEREOF” (THE JOHNS HOPKINS UNIVERSITY, priority 2021, published 2024)

Assays:
[1] = body weight of treated tumor-bearing mice; format: in vivo, BALB/c mice; settings: crystals in ~100-200 μl saline, IP or SC, any site or dose tested
Description: However, due to the highly hydrophobic nature of sorafenib, its daily 25 mg/kg bolus dosing regimen required regular used of a solvent solution made up of ˜60% of the strong organic solvent dimethylsulfoxide (DMSO). […] In stark contrast, no DMSO was required for delivery of sorafenib crystals, for which instead simply utilized ˜100-200 μl of saline to inject into the desired IP or SC tissue sites.
Once tumors had reached an average volume of ˜220-250 mm^3, mice were administered either subcutaneously or intraperitoneally with 3 or 10 mg of crystalline sorafenib, diameter ˜150-200 μm, suspended in 200 μL of sterile saline using an 18 g needle. As a control, mice (n=4) were dosed with sorafenib dissolved at a concentration of 4 mg/mL in a solution of 65% DMSO (remainder DPBS). Mice were dosed either subcutaneously or intraperitoneally with a bolus of 25 mg drug per kg of bodyweight (BW), daily. As a secondary control, mice were dosed with the 65% DMSO/PBS vehicle to monitor changes in body score based on the vehicle alone.

[2] = tested on: macrophage Cd68 and myeloid Cd11b; assay: qPCR of retrieved tumors: immune markers; format: in vivo, BALB/c mice; settings: crystal treatment groups

With CNC(=O)c1cc(Oc2ccc(NC(=O)Nc3ccc(Cl)c(C(F)(F)F)c3)cc2)ccn1 [crystalline sorafenib, sorafenib] the effect on bodyweight [1] was “did not negatively affect bodyweight” and the “Cd68 and Cd11b expression levels (qPCR)” value [2] was “no significant changes”.
